According to patent publication US20230227484A1, “PYRIMIDINE COMPOUND AS AXL INHIBITOR” (NANJING CHIA TAI TIANQING PHARMACEUTICAL CO., LTD., priority 2020, published 2023):

Molecular target: T1, AXL kinase (Homo sapiens, UniProt P30530)
T1 construct: purchased Carna 08-107
T1 sequence (P30530 473-894 limits assumed): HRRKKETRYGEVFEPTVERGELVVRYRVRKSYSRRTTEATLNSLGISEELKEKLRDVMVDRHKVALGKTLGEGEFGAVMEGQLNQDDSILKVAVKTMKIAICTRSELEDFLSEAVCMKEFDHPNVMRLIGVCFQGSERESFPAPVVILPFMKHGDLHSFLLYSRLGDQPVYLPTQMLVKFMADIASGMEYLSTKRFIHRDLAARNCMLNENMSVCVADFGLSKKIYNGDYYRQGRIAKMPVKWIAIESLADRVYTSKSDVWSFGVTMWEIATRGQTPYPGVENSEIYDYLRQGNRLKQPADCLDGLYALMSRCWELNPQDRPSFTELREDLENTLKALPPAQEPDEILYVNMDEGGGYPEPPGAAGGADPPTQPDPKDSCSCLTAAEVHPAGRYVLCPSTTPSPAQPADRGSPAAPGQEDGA
Assay: Inhibitory activity of compound against AXL kinase (HTRF KinEASE)
Type: biochemical
Details: AXL enzyme (Carna, 08-107), ATP 15 μM; "<" means below detection limit of the test
Experimental: a) AXL enzyme (Carna, 08-107) configuration and addition: a 1×enzyme buffer (200 μL of Enzymatic buffer kinase 5×, 10 μL of 500 mM MgCl2, 10 μL of 100 mM DTT and 6.26 μL of 2500 nM SEB are added with […] of H2O, and prepared into 1 ml of 1× enzyme buffer) is used. AXL enzyme is diluted from 33.33 ng/uL to 0.027 ng/μL (1.67×, final conc.=0.016 ng/uL), a BioTek (MultiFlo FX) automatic liquid dispenser is used, and 6 μL of enzyme solution having a 1.67-fold final concentration is added respectively to compound wells and positive control wells; and 6 μL of 1×Enzymatic buffer is added to negative control wells.
b) Compound preparation and addition: the compounds and positive drugs prepared in the examples are diluted from 10 mM to 100 μM by DMSO, and titrated with a compound titrator (Tecan, D300e). The titrated solution is automatically sprayed by the titrator to each well to reach a required concentration, wherein the first concentration is 1 μM, and after ½ log dilution, a total of 8 concentrations are obtained. The resulting mixture is centrifuged at 2500 rpm for 30 s and incubated at room temperature for 15 min.
c) Preparation and addition of ATP and substrate: ATP (Sigma, A7699) is diluted with 1× enzyme buffer from 10 mM to 75 μM (5×), and the final concentration is 15 μM; the substrate TK Substrate 3-biotin (Cisbio, 61TK0BLC) is diluted with 1× enzyme buffer from 500 μM to 5 μM (5×), andthe final concentration is […]; ATP and the substrate are mixed in equal volume to obtain a mixed solution; the mixed solution is added to each well at 4 μL by using a BioTek automatic dispenser; centrifuged at 2500 rpm for 30 s, and reacted at 25° C. for 45 min.
d) Pirparation and addition of detection reagent: Streptavidin-XL665 (Cisbio, 610SAXLG) is diluted with HTRF KinEASE detection buffer (cisbio) from 16.67 μM to 250 nM (4×), and the final concentration is 62.5 nM; TK Antibody-Cryptate (Cisbio) is diluted with HTRF KinEASE detection buffer (cisbio) from 100× to 5×, and the final concentration is 1×; XL665 and Antibody are mixed in equal volume; the mixed solution is added to each well at 10 μL by using the BioTek automatic dispenser, centrifuged at 2500 rpm for 30 s, and reacted at 25° C. for 1 h. After the reaction is completed, the resulting product is detected by a multi-function plate reader HTR1p
GraphPad Prism 5 software log (inhibitor) vs. response-Variable slope is used to fit a dose-response curve to obtain the IC50 value of the compound to the inhibition of AXL kinase.
The calculation formula of the inhibition rate is as follows: […]

SMILES | IC50 [nM]
COC(C)(C)c1ccc(Nc2nc(Nc3ccc4c(c3)CC[C@@H](N3CCCC3)CC4)ncc2Cl)c(P(C)(C)=O)c1 [Example 139, (S)-(2-((5-chloro-2-((7-(pyrrolidin-1-yl)-6,7,8,9-tetrahydro-5H-benzo[7]annulen-2-yl)amino)pyrimidin-4-yl)amino)-5-(2-methoxypropan-2-yl)phenyl)dimethyl phosphine oxide] | 2.53
CNC(=O)c1c(Nc2nc(Nc3ccc4c(c3)CC[C@@H](N3CCCC3)CC4)ncc2Cl)ccc2nccnc12 [Example 48, (S)-6-((5-chloro-2-((7-(pyrrolidin-1-yl)-6,7,8,9-tetrahydro-5H-benzo[7]annulen-2-yl)amino)pyrimidin-4-yl)amino)-N-methylquinoxaline-5-carboxamide] | 0.42
CS(=N)(=O)c1ccccc1Nc1nc(Nc2ccc3c(c2)CC[C@@H](N2CCCC2)CC3)ncc1Cl (stereo partly drawn) [Example 50, (2-((5-chloro-2-(((S)-7-(pyrrolidin-1-yl)-6,7,8,9-tetrahydro-5H-benzo[7]annulen-2-yl)amino)pyrimidin-4-yl)amino)phenyl)(imino)(methyl)-λ^6-sulfanone] | 2.16
CP(C)(=O)c1cc(N2CC3(COC3)C2)ccc1Nc1nc(Nc2ccc3c(c2)CC[C@@H](N2CCCC2)CC3)ncc1Cl [Example 119, (S)-(2-((5-chloro-2-((7-(pyrrolidin-1-yl)-6,7,8,9-tetrahydro-5H-benzo[7]annulen-2-yl)amino)pyrimidin-4-yl)amino)-5-(2-oxa-6-azaspiro[3.3]heptan-6-yl)phenyl)dimethyl phosphine oxide] | 9.24
CNC(=O)c1cnc(OC)cc1Nc1nc(Nc2ccc3c(c2)CC[C@@H](N2CCCC2)CC3)ncc1Cl [Example 43, (S)-4-((5-chloro-2-((7-(pyrrolidin-1-yl)-6,7,8,9-tetrahydro-5H-benzo[7]annulen-2-yl)amino)pyrimidin-4-yl)amino)-6-methoxyl-N-methylnicotinamide] | 9.87
CP(C)(=O)c1cc(C#N)ccc1Nc1nc(Nc2ccc3c(c2)CC[C@@H](N2CCCC2)CC3)ncc1Cl [Example 54, (S)-4-((5-chloro-2-((7-(pyrrolidin-1-yl)-6,7,8,9-tetrahydro-5H-benzo[7]annulen-2-yl)amino)pyrimidin-4-yl)amino)-3-(dimethylphosphoryl)benzonitrile] | 3.1
COCCNC(=O)c1ccccc1Nc1nc(Nc2ccc3c(c2)CC[C@@H](N2CCCC2)CC3)ncc1Cl [Example 38, (S)-2-((5-chloro-2-((7-(pyrrolidin-1-yl)-6,7,8,9-tetrahydro-5H-benzo[7]annulen-2-yl)amino)pyrimidin-4-yl)amino)-N-(2-methoxyethyl)benzamide] | 6.24
COc1cc(P(C)(C)=O)c(Nc2nc(Nc3ccc4c(c3)CC[C@@H](N3CCCC3)CC4)ncc2Cl)cc1C#N [Example 136, (S)-(2-((5-chloro-2-((7-(pyrrolidin-1-yl)-6,7,8,9-tetrahydro-5H-benzo[7]annulen-2-yl)amino)pyrimidin-4-yl)amino)-4-cyano-5-methoxyphenyl)dimethyl phosphine oxide] | 13.1
O=S(=O)(c1ccccc1Nc1nc(Nc2ccc3c(c2)CC[C@@H](N2CCCC2)CC3)ncc1Cl)N1CCCC1 [Example 4, (S)-5-chloro-N^2-(7-(pyrrolidin-1-yl)-6,7,8,9-tetrahydro-5H-benzo[7]annulen-2-yl)-N^4-(2-(pyrrolidin-1-ylsulfo)phenyl)pyrimidine-2,4-diamine] | < 0.11
[2H]C([2H])([2H])P(=O)(c1cc(F)ccc1Nc1nc(Nc2ccc3c(c2)CC[C@@H](N2CCCC2)CC3)ncc1Cl)C([2H])([2H])[2H] [Example 57, (S)-(2-((5-chloro-2-((7-(pyrrolidin-1-yl)-6,7,8,9-tetrahydro-5H-benzo[7]annulen-2-yl)amino)pyrimidin-4-yl)amino)-5-fluorophenyl)bis(methyl-d3) phosphine oxide] | 6.27
CNC(=O)c1cc(P(C)(C)=O)ccc1Nc1nc(Nc2ccc3c(c2)CC[C@@H](N2CCCC2)CC3)ncc1Cl [Example 79, (S)-2-((5-chloro-2-((7-(pyrrolidin-1-yl)-6,7,8,9-tetrahydro-5H-benzo[7]annulen-2-yl)amino)pyrimidin-4-yl)amino)-5-(dimethylphosphoryl)-N-methylbenzamide] | 1.05
O=S(=O)(c1cccc(Nc2nc(Nc3ccc4c(c3)CC[C@@H](N3CCCC3)CC4)ncc2Cl)c1)N1CCCC1 [Example 5, (S)-5-chloro-N^2-(7-(pyrrolidin-1-yl)-6,7,8,9-tetrahydro-5H-benzo[7]annulen-2-yl)-N^4-(3-(pyrrolidin-1-ylsulfo)phenyl)pyrimidine-2,4-diamine] | 20.7
Cc1cc(Nc2nc(Nc3ccc4c(c3)CC[C@@H](N3CCCC3)CC4)ncc2Cl)c(P(C)(C)=O)cc1F [Example 129, (S)-(2-((5-chloro-2-((7-(pyrrolidin-1-yl)-6,7,8,9-tetrahydro-5H-benzo[7]annulen-2-yl)amino)pyrimidin-4-yl)amino)-5-fluoro-4-methylphenyl)dimethyl phosphine oxide] | 9.68
[2H]c1ccc(Nc2nc(Nc3ccc4c(c3)CC[C@@H](N3CCCC3)CC4)ncc2Cl)c(P(C)(C)=O)c1 [Example 111, (S)-(2-((5-chloro-2-((7-(pyrrolidin-1-yl)-6,7,8,9-tetrahydro-5H-benzo[7]annulen-2-yl)amino)pyrimidin-4-yl)amino)phenyl-5-d)dimethyl phosphine oxide] | 1.81
CN(C)S(=O)(=O)c1ccc(Nc2nc(Nc3ccc4c(c3)CC[C@@H](N3CCCC3)CC4)ncc2Cl)cc1 [Example 3, (S)-4-((5-chloro-2-((7-(pyrrolidin-1-yl)-6,7,8,9-tetrahydro-5H-benzo[7]annulen-2-yl)amino)pyrimidin-4-yl)amino)-N,N-dimethyl benzenesulfonamide] | 23.6
CP(C)(=O)c1c(Nc2nc(Nc3ccc4c(c3)CC[C@@H](N3CCCC3)CC4)ncc2Cl)ccc(F)c1Cl [Example 132, (S)-(2-chloro-6-((5-chloro-2-((7-(pyrrolidin-1-yl)-6,7,8,9-tetrahydro-5H-benzo [7]annulen-2-yl)amino)pyrimidin-4-yl)amino)-3-fluorophenyl)dimethyl phosphine oxide] | 2.36
CC(C)Oc1ccccc1Nc1nc(Nc2ccc3c(c2)CC[C@@H](N2CCCC2)CC3)ncc1Cl [Example 8, (S)-5-chloro-4-(2-isopropoxyl)anilino-2-(7-(pyrrolidin-1-yl)-6,7,8,9-tetrahydro-5H-benzo[7]annulen-2-yl)pyrimidine] | 8.28
CN(C)C(=O)c1occc1Nc1nc(Nc2ccc3c(c2)CC[C@@H](N2CCCC2)CC3)ncc1Cl [Example 7, (S)-3-((5-chloro-2-((7-(pyrrolidin-1-yl)-6,7,8,9-tetrahydro-5H-benzo[7]annulen-2-yl)amino)pyrimidin-4-yl)amino)-N,N-dimethylfuran-2-carboxamide] | 7.74
COC(=O)c1ccncc1Nc1nc(Nc2ccc3c(c2)CC[C@@H](N2CCCC2)CC3)ncc1Cl [Example 27] | 19
CP(C)(=O)c1cc(Br)ccc1Nc1nc(Nc2ccc3c(c2)CC[C@@H](N2CCCC2)CC3)ncc1Cl [Example 110, (S)-(5-bromo 2-((5-chloro-2-((7-(pyrrolidin-1-yl)-6,7,8,9-tetrahydro-5H-benzo[7]annulen-2-yl)amino)pyrimidin-4-yl)amino)phenyl)dimethyl phosphine oxide] | 1.7
Clc1cnc(Nc2ccc3c(c2)CC[C@@H](N2CCCC2)CC3)nc1Nc1cccc2c1OCO2 [Example 9, (S)-4-(benzo[d][1,3]dioxo-4-yl)-5-chloro-2-(7-(pyrrolidin-1-yl)-6,7,8,9-tetrahydro-5H-benzo[7]annulen-2-yl)pyrimidine-2,4-diamine] | 21.9
